The values that follow come from US20030199431A1, “Modified peptide nucleic acid (PNA) molecules” (priority 1999, published 2003).

In brackets after ≈: the same amount, converted by molar mass. Like-named read-outs stand apart in the source and are kept apart here.

One assay deals with E. coli K12. Type of assay: cell-based, Escherichia coli.
Assay [1] concerns Staphylococcus aureus NCTC 8325. Set-up: MIC: unit not given beside the values. The conditions noted are these: S. aureus strain 8325.
In assay [2] the test system is S. aureus strain 700698R. The conditions noted are these: S. aureus strain ATCC 700698R; additional 24 hours at 35° C.
Assay [3] deals with S. aureus strain 700698. Set-up: MIC: unit not given beside the values. The conditions noted are these: S. aureus strain ATCC 700698.
The subject of assay [4] is Escherichia coli K12 MG1655. The class given is cell-based. The conditions noted are these: cultures with 10^4-10^1 cells/ml; 37° C., 16 hours. From the text: (§1) The bacterial growth assay is designed to identify modified PNA molecules that inhibit or completely abolish bacterial growth. Growth inhibition results from antisense binding of PNA to mRNA of the targeted gene. The compound tested is present during the entire assay.
(§2) The experimental bacterial strain used is Escherichia coli K12 MG1655 (E. coli Genentic Stock Center, Yale University, New Haven). The medium for growth is 10% sterile LB (Lurea Bertani) medium. E. coli test cells are pre-cultured in LB medium at 37° C. over night (over night culture). The screen is performed in 96-well microtiter plates at 37° C. with constant shaking. PNAs are dissolved in H2O as a 40×concentrated stock solution.
(§3) A fresh culture (test culture) is inoculated with an overnight culture and grown to mid-log-phase (OD600=0.1 corresponding to 10^7 cells/ml) at 37° C. The test culture is diluted stepwise in the range 10^5 to 10^1 with 10% LB medium. 195 μl of diluted culture and 5 μl of a 40×concentrated PNA stock solution are added to each test well. 96-well microtiter plates are incubated in a microplate scanning spectrophotometer at 37° C. under constant shaking. OD600 measurements are performed automatically every 3.19 minutes and recorded simultaneously.
The assay was performed as follows. […] PNA design no. 2

Assay [5] has as its system S. aureus strain 700698. The conditions noted are these: S. aureus strain ATCC 700698; characteristics of the strain; cited from earlier work.
Assay [6] concerns S. aureus strain 700698R. The conditions noted are these: S. aureus strain ATCC 700698R; characteristics of the strain; cited from earlier work.
Assay [7] deals with Staphylococcus aureus NCTC 8325. The conditions noted are these: S. aureus strain 8325; characteristics of the strain; cited from earlier work.
The test system of assay [8] is Escherichia coli K12 MG1655. The class given is cell-based. The conditions noted are these: cultures with 10^4-10^1 cells/ml; 37° C., 16 hours.
Text: as §1, §2, §3
The assay was performed as follows.
This is another data set of the same source.

Assay [9] concerns Enterococcus faecium strain 8803. The conditions noted are these: E. facium strain 8803.
Assay [10] has as its system Enterococcus faecium ATCC 51550. The conditions noted are these: E. facium strain ATCC 51550.
Assay [11] relates to Enterococcus faecium ATCC 700221. The conditions noted are these: E. facium strain ATCC 700221.

“H-KFFKFFKFF-ado-JTJTJJT-ado-ado-ado-TCCCTCTC-Lys-NH2 [Example 5]”: the Bacterial growth inhibition result with E. coli K12 was “− (key: +: Total inhibition of bacterial growth.; (+): Significantly extended lagphase, (more than five times); −: Lagphase extended less than five times;)”.
Still for that read-out and setting: with “H-LLKKLAKALKG-ahex-ado-CCA TCT AAT CCT-NH2 [PNA 228]” the entry was “− (key: +: Total inhibition of bacterial growth.; (+): Significantly extended lagphase, (more than five times); −: Lagphase extended less than five times;)”.
In the case of `Cc1cn(CC(=O)N(CCNC(=O)CN(CCNC(=O)CN(CCNC(=O)CN(CCNC(=O)CN(CCNC(=O)CN(CCNC(=O)CN(CCNC(=O)COCCOCCNC(=O)C2CCC(CN3C(=O)CC(SC[C@H](NC(=O)[C@H](CCCCN)NC(=O)[C@H](CCCCN)NC(=O)[C@@H](NC(=O)[C@@H](NC(=O)[C@H](Cc4ccccc4)NC(=O)[C@H](CCCCN)NC(=O)[C@@H](NC(=O)[C@H](CCCCN)NC(=O)[C@H](Cc4ccccc4)NC(=O)[C@H](CCCCN)NC(=O)[C@@H](N)CCCCN)C(C)C)C(C)C)C(C)C)C(=O)O)C3=O)CC2)C(=O)Cn2cnc3c(N)ncnc32)C(=O)Cn2ccc(N)nc2=O)C(=O)Cn2cc(C)c(=O)[nH]c2=O)C(=O)Cn2cc(C)c(=O)[nH]c2=O)C(=O)Cn2cc(C)c(=O)[nH]c2=O)C(=O)Cn2cnc3c(=O)[nH]c(N)nc32)CC(=O)NCCN(CC(=O)NCCN(CC(=O)NCCN(CC(=O)NCCN(CC(=O)NCCN(CC(N)=O)C(=O)Cn2ccc(N)nc2=O)C(=O)Cn2ccc(N)nc2=O)C(=O)Cn2ccc(N)nc2=O)C(=O)Cn2cnc3c(=O)[nH]c(N)nc32)C(=O)Cn2ccc(N)nc2=O)c(=O)[nH]c1=O` (stereo partly drawn) [Example 24, H2N-KKFKVKFVVKKC-smcc-Ado-ACTTTGTCGCCC-NH2], the MIC (in assay [1]; against S. aureus strain 700698 [3]) was 800/1600 throughout. Moreover, the MBC – broadly, the smallest concentration meeting the test's criterion for killing – in [1] (additional 24 hours at 35° C.) is 1600 nM (≈ 8.07 µg/mL); against S. aureus strain 700698R [2], “≧1600 nM”; with S. aureus strain 700698 [3] (additional 24 hours at 35° C.) it was 1600 nM (≈ 8.07 µg/mL).
Regarding “H-KFFKFFKFFK-ado-CACTGGAAATTT-Lys-NH2 [PNA 26]”, in [4], the “PNA concentration giving total inhibition of growth” value was “at least 2.5 μM”.
With `CN[C@H](CC(C)C)C(=O)N[C@H]1C(=O)N[C@@H](CC(N)=O)C(=O)N[C@H]2C(=O)N[C@H]3C(=O)N[C@H](C(=O)N[C@H](C(=O)O)c4cc(O)cc(O)c4-c4cc3ccc4O)[C@H](O)c3ccc(c(Cl)c3)Oc3cc2cc(c3O[C@@H]2O[C@H](CO)[C@@H](O)[C@H](O)[C@H]2O[C@H]2C[C@](C)(N)[C@H](O)[C@H](C)O2)Oc2ccc(cc2Cl)[C@H]1O` [Vancomycin], the “Vancomycin MIC” value in the assay with S. aureus strain 700698 [5] is 2 µg/mL; in the assay on S. aureus strain 700698R [6], 11 µg/mL; in assay [7] it was less than 0.5 µg/mL.
Turning to “H-KFFKFFKFFK-ado-TTTCATCCGCTG-Lys-NH2 [PNA 14]”, the “PNA concentration giving total inhibition of growth” value in assay [8] was “at least 1.4 μM”.
For `CC[C@H](C)[C@H](NC(=O)[C@H](CCCCN)NC(=O)[C@H](CCCCN)NC(=O)[C@H](CC(C)C)NC(=O)[C@@H](NC(=O)[C@@H](NC(=O)[C@H](C)NC(=O)[C@@H](NC(=O)[C@H](CCCCN)NC(=O)[C@H](CCCCN)NC(=O)[C@@H](NC(=O)[C@H](CC(C)C)NC(=O)[C@@H](NC(=O)[C@@H](NC(=O)CNC(=O)[C@H](CC(C)C)NC(=O)[C@@H]1CCCN1C(=O)[C@H](C)NC(=O)[C@H](CC(C)C)NC(=O)[C@@H](NC(=O)[C@@H](N)CO)[C@@H](C)CC)[C@@H](C)O)[C@@H](C)O)C(C)C)C(C)C)[C@@H](C)O)[C@@H](C)O)C(=O)N[C@@H](Cc1ccccc1)C(=O)N[C@@H](CO)C(=O)N[C@@H](CCCCN)C(=O)N[C@@H](Cc1c[nH]c2ccccc12)C(=O)N[C@@H](CCCCN)C(=O)N[C@@H](CSC1CC(=O)N(CC2CCC(C(=O)NCCOCCOCC(=O)NCCN(CC(=O)NCCN(CC(=O)NCCN(CC(=O)NCCN(CC(=O)NCCN(CC(=O)NCCN(CC(=O)NCCN(CC(=O)NCCN(CC(=O)NCCN(CC(=O)NCCN(CC(=O)NCCN(CC(=O)NCCN(CC(N)=O)C(=O)Cn3cnc4c(N)ncnc43)C(=O)Cn3cc(C)c(=O)[nH]c3=O)C(=O)Cn3cc(C)c(=O)[nH]c3=O)C(=O)Cn3cc(C)c(=O)[nH]c3=O)C(=O)Cn3cnc4c(N)ncnc43)C(=O)Cn3ccc(N)nc3=O)C(=O)Cn3cnc4c(N)ncnc43)C(=O)Cn3cnc4c(N)ncnc43)C(=O)Cn3cc(C)c(=O)[nH]c3=O)C(=O)Cn3ccc(N)nc3=O)C(=O)Cn3cc(C)c(=O)[nH]c3=O)C(=O)Cn3cc(C)c(=O)[nH]c3=O)CC2)C1=O)C(=O)O` (stereo partly drawn) [Example 22], the minimal inhibitory concentration (MIC) in assay [9], in assay [10] and in assay [11] was less than 400 nM each time. For the same molecule, the minimal bactericidal concentration (MBC) in assay [9] (additional 24 hours at 35° C.), in assay [10] (additional 24 hours at 35° C.) and in [11] (additional 24 hours at 35° C.) was less than 400 nM throughout.
